Molecules are shown by their SMILES.

We go through 15 compounds from patent publication US9795139B2, “Molecules having pesticidal utility, and intermediates, compositions, and processes, related thereto” (priority 2015, dated 2017).

Holding throughout (type): in vivo
For series [1], the system named is Beet Armyworm (Spodoptera exigua, LAPHEG). The experiment in a line: Bioassay on Beet Armyworm (BAW), 128-well diet tray assay. Conditions: 168 h, 50 μg/cm^2 on artificial diet, second instar larvae, 25° C., five to seven days, average of eight wells, read-out: BAW % Control (or Mortality) rating. The essentials: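 Second instar larvae were exposed to diet treated at 50 μg/cm^2 for five to seven days at 25° C.; mortality was averaged over eight wells.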

Series [2] deals with Cabbage Looper (Trichoplusia ni, TRIPNI). Put plainly: Bioassay on Cabbage Looper (CL), 128-well diet tray assay. Conditions: 168 h, 50 μg/cm^2 on artificial diet, second instar larvae, 25° C., five to seven days, average of eight wells, read-out: CL % Control (or Mortality) rating. The essentials:
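Percent mortality, averaged across eight replicate wells, was scored after five to seven days at 25° C. under a 14:10 light-dark cycle. Each well held one to five second instar larvae on artificial diet treated at 50 μg/cm^2 with compound from 90:10 acetone-water, allowed to dry before infestation.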

The test system of series [3] is Green Peach Aphid (Myzus persicae, MYZUPE). The experiment in a line: Bioassay on Green Peach Aphid (GPA), foliar spray on cabbage seedlings. To be noted: 72 h, 200 ppm foliar spray on cabbage seedlings, three days, Abbott corrected % control, read-out: GPA % Control (or Mortality) rating. On the procedure: Certain molecules disclosed in this document were tested against GPA using procedures described in the following example. In the reporting of the results, the “GPA & YFM Rating Table” was used (See Table Section).
Cabbage seedlings grown in 3-inch pots, with 2-3 small (3-5 cm) true leaves, were used as test substrate. The seedlings were infested with 20-50 GPA (wingless adult and nymph stages) one day prior to chemical application. Four pots with individual seedlings were used for each treatment. Test molecules (2 mg) were dissolved in 2 mL of acetone/methanol (1:1) solvent, forming stock solutions of 1000 ppm test molecule.
The stock solutions were diluted 5× with 0.025% Tween 20 in water to obtain the solution at 200 ppm test molecule. A hand-held aspirator-type sprayer was used for spraying a solution to both sides of […] leaves until runoff. Reference plants (solvent check) were sprayed with the diluent only containing 20% by volume of acetone/methanol (1:1) solvent. Treated plants were held in a holding room for three days at approximately 25° C. and ambient relative humidity (RH) prior to grading. Evaluation was conducted by counting the number of live aphids per plant under a microscope. Percent control was measured using Abbott's correction formula (W. S. Abbott, “A Method of Computing the Effectiveness of an Insecticide” J. Econ. Entomol. 18 (1925), pp. 265-267) as follows. Corrected % Control=100*(X−Y)/X where X=No. of live aphids on solvent check plants and Y=No. of live aphids on treated plants. The results are indicated in the table entitled “Table ABC: Biological Results” (See Table Section).

For series [4], the system named is Yellow Fever Mosquito (Aedes aegypti, AEDSAE). Conditions: about 1 day-old larvae, 96-well plate from 4000 ppm DMSO master, 3 days at room temperature. The essentials:
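Aedes aegypti larvae (about 1 day old) in liver-powder water were added to plates dispensed from DMSO master plates (4000 ppm stock) diluted with 90:10 water/acetone; six replicate plates per master. Lidded plates were held at room temperature for 3 days, then each well was scored for mortality.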

Turning to `N#CC1(NC(=O)c2cc(NC(=O)[C@H]3[C@H](c4cc(Cl)c(Cl)c(Cl)c4)C3(Cl)Cl)ccc2Cl)CC1` (relative stereo) [Molecule F10, trans-2-Chloro-N-(1-cyanocyclopropyl)-5-(2,2-dichloro-3-(3,4,5-trichlorophenyl)cyclopropanecarboxamido)benzamide], the mortality at 50 µg/cm2 in series [1] and in series [2] was 50 to 100% in each case. For the same compound, in series [3], the mortality (commonly the percentage killed) at 200 ppm is 80 to 100%. Also, the “YFM % Control (or Mortality) rating” value in series [4] is recorded as “A (80-100)”.
Consider `O=C(NC1CSC1)c1cc(NC(=O)[C@H]2[C@H](c3cc(Cl)c(Cl)c(Cl)c3)C2(Cl)Cl)ccc1Cl` (relative stereo) [Molecule F17, trans-2-Chloro-5-(2,2-dichloro-3-(3,4,5-trichlorophenyl)cyclopropanecarboxamido)-N-(thietan-3-yl)benzamide], for which the mortality at 50 µg/cm2 in series [1] and in series [2] was 50 to 100% each time. Besides, the mortality at 200 ppm in series [3] was in the range of 80 to 100%. The “YFM % Control (or Mortality) rating” value in series [4] was “A (80-100)”.
As for `O=C(NC1CSC1)c1cc(NC(=O)[C@H]2[C@H](c3ccc(Cl)c(Cl)c3)C2(Cl)Cl)ccc1Cl` (relative stereo) [Molecule F16, trans-2-Chloro-5-(2,2-dichloro-3-(3,4-dichlorophenyl)cyclopropanecarboxamido)-N-(thietan-3-yl)benzamide], the mortality at 50 µg/cm2 in series [1] and in series [2] was 50 to 100% in each case. Besides, the mortality at 200 ppm in series [3] fell in the range of 80 to 100%. Moreover, the “YFM % Control (or Mortality) rating” value in series [4] is on record as “A (80-100)”.
Take `O=C(NC1CC1)c1cccc(NC(=O)[C@H]2[C@H](c3cc(Cl)cc(Cl)c3)C2(Cl)Cl)c1` (relative stereo) [Molecule F3, trans-N-Cyclopropyl-3-(2,2-dichloro-3-(3,5-dichlorophenyl)cyclopropanecarboxamido)benzamide]: the mortality at 50 µg/cm2 in series [1] and in series [2] was 50 to 100% each time. Also, the mortality at 200 ppm in series [3] lay within 0 to 80%. For the same compound, in series [4], the “YFM % Control (or Mortality) rating” value was “A (80-100)”.
Take `O=C(NC1CC(F)(F)C1)c1cc(NC(=O)[C@H]2[C@H](c3cc(Cl)cc(Cl)c3)C2(Cl)Br)ccc1Cl` (relative stereo) [Molecule F71, trans-5-(2-Bromo-2-chloro-3-(3,5-dichlorophenyl)cyclopropane-1-carboxamido)-2-chloro-N-(3,3-difluorocyclobutyl)benzamide]: the mortality at 50 µg/cm2 in series [1] and in series [2] was 50 to 100% in each case. For the same compound, the mortality at 200 ppm in series [3] is 80 to 100%. For the same compound, in series [4], the “YFM % Control (or Mortality) rating” value is given as “B (More than 0-Less than 80)”.
Turning to `O=C(NC1CSC1)c1cc(NC(=O)[C@H]2[C@H](c3cc(Cl)cc(Cl)c3)C2(Cl)Cl)ccc1Cl` (relative stereo) [Molecule F15, trans-2-Chloro-5-(2,2-dichloro-3-(3,5-dichlorophenyl)cyclopropanecarboxamido)-N-(thietan-3-yl)benzamide], the mortality at 50 µg/cm2 in series [1] and in series [2] was 50 to 100% each time. For the same compound, the mortality at 200 ppm in series [3] was 80 to 100%. Moreover, in series [4], the “YFM % Control (or Mortality) rating” value was “A (80-100)”.
As for `O=C(NC1CCC1)c1cc(NC(=O)[C@H]2[C@H](c3ccc(Cl)c(Cl)c3)C2(Cl)Cl)ccc1Cl` (relative stereo) [Molecule F41, trans-2-Chloro-N-cyclobutyl-5-(2,2-dichloro-3-(3,4-dichlorophenyl)cyclopropanecarboxamido)benzamide], the mortality at 50 µg/cm2 in series [1] and in series [2] was 50 to 100% in each case. Further, in series [3], the mortality at 200 ppm was 80 to 100%. Besides, the “YFM % Control (or Mortality) rating” value in series [4] was “A (80-100)”.
Consider `O=C(NC1CC(F)(F)C1)c1cc(NC(=O)[C@H]2[C@H](c3cc(Cl)cc(Br)c3)C2(Cl)Cl)ccc1Cl` (relative stereo) [PF8, trans-5-(3-(3-Bromo-5-chlorophenyl)-2,2-dichlorocyclopropane-1-carboxamido)-2-chloro-N-(3,3-difluorocyclobutyl)benzamide], for which the mortality at 50 µg/cm2 in series [1] and in series [2] was 50 to 100% throughout. Moreover, in series [3], the mortality at 200 ppm lay in the range of 80 to 100%. Further, the “YFM % Control (or Mortality) rating” value in series [4] is “D (No activity noticed in this bioassay)”.
Consider `N#CC1(NC(=O)c2cc(NC(=O)[C@H]3[C@H](c4cc(Cl)cc(Cl)c4)C3(Cl)Cl)ccc2Cl)CCC1` (relative stereo) [Molecule F12, trans-2-Chloro-N-(1-cyanocyclobutyl)-5-(2,2-dichloro-3-(3,5-dichlorophenyl)cyclopropanecarboxamido)benzamide], for which the mortality at 50 µg/cm2 in series [1] and in series [2] was 50 to 100% each time. Moreover, in series [3], the mortality at 200 ppm is 0 to 80%. Also, in series [4], the “YFM % Control (or Mortality) rating” value is “A (80-100)”.
In the case of `O=C(NC1CC(F)(F)C1)c1cc(NC(=O)[C@H]2[C@H](c3ccc(F)c(Cl)c3)C2(Cl)Cl)ccc1Cl` (relative stereo) [PF7, trans-2-Chloro-5-(2,2-dichloro-3-(3-chloro-4-fluorophenyl)cyclopropane-1-carboxamido)-N-(3,3-difluorocyclobutyl)benzamide], the mortality at 50 µg/cm2 in series [1] and in series [2] was 50 to 100% throughout. Besides, the mortality at 200 ppm in series [3] was in the range of 80 to 100%. For the same compound, in series [4], the “YFM % Control (or Mortality) rating” value is recorded as “D (No activity noticed in this bioassay)”.
Regarding `Cc1cc([C@H]2[C@H](C(=O)Nc3ccc(Cl)c(C(=O)NC4CC(F)(F)C4)c3)C2(Cl)Cl)cc(Cl)c1Cl` (relative stereo) [Molecule F50, trans-2-Chloro-5-(2,2-dichloro-3-(3,4-dichloro-5-methylphenyl)cyclopropanecarboxamido)-N-(3,3-difluorocyclobutyl)benzamide], the mortality at 50 µg/cm2 in series [1] and in series [2] was 50 to 100% each time. Further, the mortality at 200 ppm in series [3] was in the range of 0 to 80%. For the same compound, in series [4], the “YFM % Control (or Mortality) rating” value was “D (No activity noticed in this bioassay)”.
`O=C(NC1CCSC1)c1cc(NC(=O)[C@H]2[C@H](c3cc(Cl)c(Cl)c(Cl)c3)C2(Cl)Cl)ccc1Cl` (relative stereo) [Molecule F8, trans-2-chloro-5-(2,2-dichloro-3-(3,4,5-trichlorophenyl)cyclopropanecarboxamido)-N-(tetrahydrothiophen-3-yl)benzamide]: the mortality at 50 µg/cm2 in series [1] and in series [2] was 50 to 100% in each case. For the same compound, the mortality at 200 ppm in series [3] came to 0%. Also, the “YFM % Control (or Mortality) rating” value in series [4] was “A (80-100)”.
On to `CN(C(=O)c1cc(NC(=O)[C@H]2[C@H](c3cc(Cl)c(Cl)c(Cl)c3)C2(Cl)Cl)ccc1Cl)C1CC(F)(F)C1` (relative stereo) [Molecule F34, trans-2-Chloro-5-(2,2-dichloro-3-(3,4,5-trichlorophenyl)cyclopropanecarboxamido)-N-(3,3-difluorocyclobutyl)-N-methylbenzamide], for which the mortality at 50 µg/cm2 in series [1] and in series [2] was 50 to 100% throughout. In series [3], the mortality at 200 ppm lay within 0 to 80%. In addition, the “YFM % Control (or Mortality) rating” value in series [4] was “A (80-100)”.
For the compound `O=C(NC1CC(F)(F)C1)c1cc(NC(=O)[C@H]2[C@H](c3cccc(C(F)(F)F)c3)C2(Cl)Cl)ccc1Cl` (relative stereo) [Molecule F19, trans-2-Chloro-5-(2,2-dichloro-3-(3-(trifluoromethyl)phenyl)cyclopropanecarboxamido)-N-(3,3-difluorocyclobutyl)benzamide], the mortality at 50 µg/cm2 in series [1] and in series [2] was 50 to 100% each time. The mortality at 200 ppm in series [3] was in the range of 80 to 100%. Besides, in series [4], the “YFM % Control (or Mortality) rating” value is reported as “B (More than 0-Less than 80)”.
For `N#CC1(NC(=O)c2cc(NC(=O)[C@H]3[C@H](c4cc(Cl)c(Cl)c(Cl)c4)C3(Cl)Cl)ccc2Cl)CCC1` (relative stereo) [Molecule F13, trans-2-Chloro-N-(1-cyanocyclobutyl)-5-(2,2-dichloro-3-(3,4,5-trichlorophenyl)cyclopropanecarboxamido)benzamide], the mortality at 50 µg/cm2 in series [1] and in series [2] was 50 to 100% each time. Moreover, the mortality at 200 ppm in series [3] is 0 to 80%. In series [4], the “YFM % Control (or Mortality) rating” value is reported as “A (80-100)”.
